Laboratory results reported in US20210323914A1, “IONIZABLE CATIONIC LIPID FOR RNA DELIVERY” (Arcturus Therapeutics, Inc., priority 2017, published 2021).

Legend:
[1] = Measured pKa of cationic lipids in LNP or micellar formulations by TNS fluorescence; type: physicochemical; conditions: for pKa: measured in the Formulation milieu, TNS fluorescence, 1 mM total lipids; for Δ measured pKa vs ATX-0002: change on shortening the ester
Protocol: pKa of cationic lipids in LNP or micellar Formulations were measured by the procedure of Jayaraman, 2012, Angew. Chem. Int. Ed., 51:8529-33, hereby incorporated by reference. Lipid micelles or LNPs are diluted to 1 mM total lipids in universal buffer with a pH range between 3 and 12 in presence of 0.06 mg/mL 6-(p-toluidino)-2-naphthalenesulfonic acid sodium salt (TNS) reagent (Sigma Aldrich), a pH sensitive fluorescence probe. The anionic TNS molecule fluoresces when associated with the surface of positively charged membranes but is not fluorescent when free in solution, allowing measurement of pKa. The TNS signal is measured on a spectral plate reader. The TNS signal is plotted as function of the pH and analyzed using a non-linear (Boltzman) to determine the pKa.
Reagents used in the assay include • Hepes free acid, CAS: 7365-45-9 (VWR, 0511-1KG or equivalent) • MES, HPLC grade: (Sigma 105228-100G or equivalent) • Ammonium acetate, HPLC grade: (Sigma 90335-100 mL or equivalent) • Sodium chloride, HPLC grade (VWR EM-MX0475-1 or equivalent) • TNS (Sigma-Aldrich T9792-250 mg or equivalent) • Hydrochloric acid • DMSO • DPBS without calcium and magnesium (GE, SH30028.02 or equivalent) • H2O, HPLC grade (OmniSolv, WX0004-1 or equivalent)
To prepare a stock solution of Universal Buffer (UB) in a polystyrene sterile storage bottle, prepare 1 L using the following table.
Reagents are sterile filtered through a 0.2 μm filter. Preparation of UB solution includes adding 5 mL of 1 M HCl to a 350 mL stock solution.
To prepare a pH ladder, centrifuge tubes (50 mL) with 20 mL UB buffer are used. (pH ˜3) and differing amounts of 2 N NaOH. Stock solutions of TNS at 1 mg/mL in DMSO. 60 μL of TNS at 1 mg/mL is added to 940 μL water to reach a working solution concentration of 0.06 mg/mL. Five test samples, 1 mL of LNP sample in PBS at 1 mM total lipid, and 1 reference sample are analyzed per plate. Samples at different pH values are prepared in wells in which 25 μL of 0.06 mg/mL TNS is added. 15 μL of test samples is added per well. The microplate is incubated for 15 minutes at room temperature in the dark. TNS template can be used to format data from the plate reader. Perform non-linear (Boltzman) regression analysis of the samples in Origin Pro 8 or equivalent software.

Factor VII = assay: In vivo mouse Factor VII siRNA knockdown with lipid nanoparticles; parameters: species or system C57BL/6 mice; conditions: intravenous, mice, 48 hours; for Bioactivity: percentage in vivo Factor VII knockdown: dose 0.03 mg/kg
Excerpt: The first pair of numbers denotes the number of carbons in the ester, including the carbonyl, for L1 and L2; the pair of numbers in the parenthesis denotes the number of carbons in each branch of the branched alkyl, R1 or if R2 is also branched, R1/R2 (an asterisk denotes a double bond); the number of carbons in R3 is given; and the last line denotes the substitution for R4 and R5. The ATX number is given for reference herein. Calculated Log D values (c-Log D) and calculated pKa (c-pKa) values are given, as well as measured pKa in parenthesis (measured in the Formulation milieu). The c-Log D and c-pKa values are generated by ACD Labs Structure Designer v12.0. Bioactivity is percentage in vivo Factor VII knockdown at a dose of 0.03 mg/kg, unless otherwise designated.
Using a liver-directed in vivo screen of the liposome libraries, a series of compounds were tested that facilitate high levels of siRNA mediated gene silencing in hepatocytes, the cells comprising the liver parenchyma. Factor VII, a blood-clotting factor, is a suitable target gene for assaying functional siRNA delivery to liver. Because this factor is produced specifically in hepatocytes, gene silencing indicates successful delivery to parenchyma, as opposed to delivery to the cells of the reticulo-endothelial system (e.g., Kupffer cells). Furthermore, Factor VII is a secreted protein that can be readily measured in serum, obviating the need to euthanize animals. Silencing at the mRNA level can be readily determined by measuring levels of protein. This is because the protein's short half-life (2-5 hour). Compositions with siRNA directed to […] were Formulated with the lipid, and comparator sample phosphate-buffered saline (PBS). Female C57BL/6 mice (6-8 week old) were used for FVII siRNA knockdown (KD) experiments.
All Formulations were administered intravenously via tail vein injection at a dose of 0.03 and 0.1 mg/kg at a dosing volume of […]. Terminal blood collection was performed via cardiac puncture under 2% isoflurane at 48 hours after Formulation injections. Blood was collected into 0.109 M citrate buffer tube and processed by centrifugation at 1200 G for 10 min. Plasma was collected and Factor VII protein levels were analyzed by chromogenic assay (Biophen FVII, Aniara Corporation). A standard curve was constructed using samples from PBS-injected mice and relative Factor VII expression was determined by comparing treated groups to untreated PBS control.

Structure (SMILES): CCC/C=C/CCC(CC/C=C/CCC)OC(=O)CCCN(CCCCCC(=O)OC/C=C\CCCCCC)C(=O)SCCN(C)C
- pKa [1]: 5.93
- Bioactivity: percentage in vivo Factor VII knockdown (Factor VII): 75 percentage

Structure (SMILES): CCCCCC/C=C\COC(=O)CCCCCN(CCCC(=O)OC(CCCCCCCC)CCCCCCCC)C(=O)SCCN(C)C
- pKa [1]: 5.38
- Bioactivity: percentage in vivo Factor VII knockdown (Factor VII): 81 percentage

Structure (SMILES): CCCCCC/C=C\COC(=O)CCCCCN(CCCCC(=O)OC(CCCCCCC)CCCCCCC)C(=O)SCCN(C)C
- pKa [1]: 5.9
- Bioactivity: percentage in vivo Factor VII knockdown (Factor VII): 90 percentage

Structure (SMILES): CCCCCC/C=C\COC(=O)CCCCCCCN(CCCC(=O)OC(CCCCCC)CCCCCC)C(=O)SCCN(C)C
- pKa [1]: 5.61
- Bioactivity: percentage in vivo Factor VII knockdown (Factor VII): 63 percentage

Structure (SMILES): CCCCCC/C=C\COC(=O)CCCCCCCN(CCCC(=O)OC(CCCCCCC)CCCCCCC)C(=O)SCCN(C)C
- pKa [1]: 5.38
- Bioactivity: percentage in vivo Factor VII knockdown (Factor VII): 73 percentage

Structure (SMILES): CCCCCC/C=C\COC(=O)CCCCCN(CCCCCC(=O)OC(CCCCCCC)CCCCCCC)C(=O)SCCN(C)C
- pKa [1]: 5.93
- Bioactivity: percentage in vivo Factor VII knockdown (Factor VII): 91 percentage

Structure (SMILES): CCC/C=C/CCC(CC/C=C/CCC)OC(=O)CCCCCN(CCCCCC(=O)OC/C=C\CCCCCC)C(=O)SCCN(C)C
- pKa [1]: 5.94
- Bioactivity: percentage in vivo Factor VII knockdown (Factor VII): 82 percentage

Structure (SMILES): CCCCCC/C=C\COC(=O)CCCCCN(CCCCCC(=O)OC(CCCCCCCC)CCCCCCCC)C(=O)SCCN(C)C
- pKa [1]: 5.82
- Bioactivity: percentage in vivo Factor VII knockdown (Factor VII): 85 percentage

Structure (SMILES): CCCCCC/C=C\COC(=O)CCCCCN(CCCCCC(=O)OC(CCCCCCC)CCCCCCC)C(=O)SCCCN(CC)CC
- pKa [1]: 6.45
- Bioactivity: percentage in vivo Factor VII knockdown (Factor VII): 95 percentage

Structure (SMILES): CCCCCC/C=C\COC(=O)CCCCCCN(CCCCCCC(=O)OC(CCCCCC)CCCCCC)C(=O)SCCN(C)C
- pKa [1]: 5.67
- Bioactivity: percentage in vivo Factor VII knockdown (Factor VII): 66 percentage

Structure (SMILES): CCC/C=C/CCC(CC/C=C/CCC)OC(=O)CCCCCCN(CCCCCCC(=O)OC/C=C\CCCCCC)C(=O)SCCN(C)C
- pKa [1]: 5.68
- Bioactivity: percentage in vivo Factor VII knockdown (Factor VII): 67 percentage

Structure (SMILES): CCCCCC/C=C\COC(=O)CCCCCCCN(CCCCCCCC(=O)OC(CCCC)CCCC)C(=O)SCCN(C)C
- pKa [1]: 6.22
- Bioactivity: percentage in vivo Factor VII knockdown (Factor VII): 71 percentage

Structure (SMILES): CCCCCC/C=C\COC(=O)CCCCCCCN(CCCCCCCC(=O)OC(CCCCC)CCCCC)C(=O)SCCN(C)C
- pKa [1]: 5.81
- Bioactivity: percentage in vivo Factor VII knockdown (Factor VII): 68 percentage

Structure (SMILES): CCCCCC/C=C\COC(=O)CCCN(CCCC(=O)OC(CCCCCC)CCCCCCC)C(=O)SCCN(C)C (stereo not shown) [ATX-0058]
- Δ measured pKa vs ATX-0002 [1]: no impact
- pKa [1]: 5.95
- Factor VII knockdown activity compared with ATX-002 (FIG. 18) (Factor VII; both at 0.03 and 0.1 mg/kg): substantially more effective than ATX-002
- Bioactivity: percentage in vivo Factor VII knockdown (Factor VII): 86 percentage

Structure (SMILES): CCCCCC/C=C\COC(=O)CN(CC(=O)OC(CCCCCCCC)CCCCCCCC)C(=O)SCCN(C)C [ATX-0061]
- Δ measured pKa vs ATX-0002 [1]: −0.90
- pKa [1]: 5.13
- Bioactivity: percentage in vivo Factor VII knockdown (Factor VII): 0 percentage

Structure (SMILES): CCCCCC/C=C\COC(=O)CN(CC(=O)OC(CCCCC)CCCCC)C(=O)SCCN(C)C [ATX-0063]
- Δ measured pKa vs ATX-0002 [1]: −0.7
- pKa [1]: 5.39
- Bioactivity: percentage in vivo Factor VII knockdown (Factor VII): 0 percentage

Structure (SMILES): CCCCCC/C=C\COC(=O)CN(CC(=O)OC(CCCCCCC)CCCCCCCC)C(=O)SCCN(C)C (stereo not shown) [ATX-0064]
- Δ measured pKa vs ATX-0002 [1]: −0.90
- pKa [1]: 5.14
- Bioactivity: percentage in vivo Factor VII knockdown (Factor VII): 0 percentage

Structure (SMILES): CCCCCCC(CCCCC)OC(=O)CCCN(CCCCC(=O)OC(CCCCC)CCCCC)C(=O)SCCN(C)C (stereo not shown) [ATX-0085]
- Bioactivity: percentage in vivo Factor VII knockdown (Factor VII): 56 percentage
